Data reported in US9474701B2, “Antimicrobial soaps containing carvacrol and methods of using same” (Hydromer, Inc., priority 2014, dated 2016).

Tests used:
[1] = system: gram negative/gram positive bacteria; assay: Synergistic effect of soap ingredients with/without Oregano Oil; type: cell-based; details: for Efficacy against gram negative/gram positive bacteria: inhibition, ingredients with/without Oregano Oil; for Synergistic effect: synergism with Oregano Oil
Procedure: Main ingredients of NMP free V100, 2-Phenoxyethanol, Caprylyl glycol and Hexylene Glycol were analyzed in the concentrations that they appear in the Hydromer Antiseptic Soap with/without Oregano Oil.

[2] = system: gram negative/gram positive bacteria; assay: Synergistic effect of soap ingredients with/without Carvacrol; type: cell-based; details: for Efficacy against gram negative/gram positive bacteria: bacterial growth inhibition, ingredients with/without Carvacrol; for Synergistic effect: synergism with the Carvacrol
Procedure: Main ingredients of NMP free V100, (2-Phenoxyethanol, Caprylyl glycol and Hexylene Glycol) were analyzed with/without Carvacrol.

## CCCCCCC(O)CO (centres unmarked) [0.02% Caprylyl Glycol, Caprylyl Glycol]
[1]
  Efficacy against gram negative/gram positive bacteria: NO Inhibition
  Synergistic effect: act synergistically
[2]
  Efficacy against gram negative/gram positive bacteria: NO Inhibition
  Synergistic effect: act synergistically

## OCCOc1ccccc1 [0.035% 2-Phenoxyethanol, 2-Phenoxyethanol]
[1]
  Efficacy against gram negative/gram positive bacteria: NO Inhibition
  Synergistic effect: act synergistically
[2]
  Efficacy against gram negative/gram positive bacteria: NO Inhibition
  Synergistic effect: act synergistically

## Cc1ccc(C(C)C)cc1O [0.2% Carvacrol, Carvacrol]
[2]
  Efficacy against gram negative/gram positive bacteria: NO Inhibition

## Hexylene Glycol [0.008% Hexylene Glycol]
[1]
  Efficacy against gram negative/gram positive bacteria: NO Inhibition
[2]
  Efficacy against gram negative/gram positive bacteria: NO Inhibition
